Experimental data: publication PMC7482845, “G10 is a direct activator of human STING” (PLoS ONE, 2020)
Read-outs that look alike come from different tables or passages of the source.

What was measured:
HAQ STING (THP-1 cells) = molecular target: T1, HAQ STING (THP-1 cells) (Homo sapiens, UniProt Q86WV6, G230A/R293Q/R71H); assay: THP1 cellular assay (EC50); format: cell-based; details: THP-1 cells (HAQ STING)
T1 construct: THP1 cells constitutively express the HAQ variant of human STING; host or cells: THP-1
T1 sequence (Q86WV6 whole entry R71H/G230A/R293Q): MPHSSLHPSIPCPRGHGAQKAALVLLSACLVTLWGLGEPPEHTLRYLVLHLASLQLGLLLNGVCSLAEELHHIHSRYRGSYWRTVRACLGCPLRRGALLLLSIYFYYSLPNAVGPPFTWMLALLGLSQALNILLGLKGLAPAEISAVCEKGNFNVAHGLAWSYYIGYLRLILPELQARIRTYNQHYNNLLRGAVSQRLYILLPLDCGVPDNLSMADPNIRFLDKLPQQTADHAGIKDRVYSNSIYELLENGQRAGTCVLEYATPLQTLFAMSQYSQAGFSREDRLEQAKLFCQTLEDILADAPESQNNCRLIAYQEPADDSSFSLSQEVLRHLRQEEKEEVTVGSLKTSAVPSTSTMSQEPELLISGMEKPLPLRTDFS

[1] = molecular target: T2, R232 variant of human STING (Homo sapiens, UniProt Q86WV6, H232R); assay: Luciferase (ISRE.ISG reporter) assay in HEK293T cells stably expressing R232 hSTING; format: cell-based
T2 construct: the ER fraction from R232.STING transfected HEK293T cells which contained full length STING
T2 sequence (Q86WV6 whole entry H232R): as the sequence (Q86WV6 whole entry R71H/G230A/R293Q) above, with H71R, A230G, H232R, Q293R counted along it
Excerpt: (§1) • a) Stable STING expressing cells. Stable HEK293T STING-expressing cell lines were generated using plasmids purchased from Invivogen, CA, USA, that contain STING cDNA cloned into the pUNO-1 vector under the hEF1-HTLV promoter as well as the Blasticidin selection cassette. The human STING plasmids corresponding to the R232, H232 and HAQ variants were directly procured from Invivogen while the AQ and Q variants were created by mismatch PCR using cDNA from HAQ.STING and R232.STING variants respectively. These vectors were individually transfected into HEK293T cells using Lipofectamine (Invitrogen) and transfected cells were expanded under Blasticidin selection. These cells were further subjected to clonal selection using the limiting dilution method to obtain clonally pure populations of HEK293T cells expressing each of the five human STING variants. Clones with minimal ligand independent activation of STING were chosen for cellular experiments. • b) N-His R232.hSTING HEK293T cells. HEK293T cells stably expressing N-His R232.hSTING were generated by the following described method. N-His R232.hSTING.pcDNA Myc B plasmid was transfected into HEK293T cells using Lipofectamine reagent (Invitrogen) and the transfected cells were selected under Hygromycin. Stably STING expressing HEK293T cells thus selected were further subjected to single cell clonal selection using the limiting dilution method to obtain a clonally pure population of HEK293T cells expressing the human R232 STING variant.
[…] clonally selected HEK293T-hSTING-Luciferase cells or control HEK293T-Luciferase cells were seeded in 384-well plates in growth medium and stimulated with known STING agonists or novel compounds. […]

[2] = tested on: immortalized human fibroblasts; set-up: method as in PMID 26646986; details: cited from earlier work
[3] = molecular target: T3, mSTING (CT26 cells overexpressing mSTING) (Mus musculus, UniProt Q3TBT3); assay: Western blot of pSTING and pIRF3 in CT26 cells overexpressing mSTING; format: cell-based; details: immunoblot, 2 hours
T3 construct: expressed in transfected cells; host or cells: CT26
T3 sequence (Q3TBT3 whole entry): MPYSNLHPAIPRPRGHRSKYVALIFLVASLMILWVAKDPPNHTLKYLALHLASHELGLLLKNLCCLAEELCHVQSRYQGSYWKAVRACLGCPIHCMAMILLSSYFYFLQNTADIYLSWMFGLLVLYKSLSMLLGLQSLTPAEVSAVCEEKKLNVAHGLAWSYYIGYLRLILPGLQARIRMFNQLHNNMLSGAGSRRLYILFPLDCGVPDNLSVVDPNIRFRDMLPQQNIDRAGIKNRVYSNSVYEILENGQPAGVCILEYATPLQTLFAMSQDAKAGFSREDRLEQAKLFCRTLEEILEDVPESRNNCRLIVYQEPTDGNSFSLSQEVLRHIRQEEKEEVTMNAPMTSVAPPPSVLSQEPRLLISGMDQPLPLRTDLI
Description: 5 x 10^5 cells were seeded in 24-well plates in 500 μl growth medium and stimulated with novel compounds at 10μM. After 2 hours of treatment cells were harvested by centrifugation and cell pellets were lysed in RIPA buffer (20mM Tris-Cl, 150mM NaCl, 0.5mM EDTA, 1% NP40, 0.05% SDS) containing 1x phosphatase inhibitor cocktail 3 (Sigma) and 1x protease inhibitor (Roche) to extract the soluble fraction of protein. 10 μg of extracted protein was electrophoresed in 10% SDS-PAGE gels and transferred onto Immobilon-P membranes (Millipore). […] Anti-rabbit HRP label secondary antibody (Abcam) and Clarity Max™ western ECL substrate (Biorad—cat# 1705062) were used for visualization of bands using a BioRad XRS plus imager.

[4] = molecular target: H232 variant of human STING (Homo sapiens, UniProt Q86WV6); assay: Luciferase (ISRE.ISG reporter) assay in HEK293T cells stably expressing H232 hSTING; format: cell-based; details: ISRE.ISG54 luciferase reporter, 18 hours, read-out: estimated EC50, H232 variant
Excerpt: as §1, with “HEK293T cells stably expressing N-His R232.hSTING were generated by the following described method. N-His R232.hSTING.pcDNA Myc B plasmid was transfected into HEK293T cells using Lipofectamine reagent (Invitrogen) and the transfected cells were selected under Hygromycin. Stably STING expressing HEK293T cells thus selected were further subjected to single cell clonal selection using the limiting dilution method to obtain a clonally pure population of HEK293T cells expressing the human R232 STING variant.” left out
5 x 10^5 clonally selected HEK293T-hSTING-Luciferase cells or control HEK293T-Luciferase cells were seeded in 384-well plates in growth medium and stimulated with known STING agonists or novel compounds. Supernatants were removed after 20 hours of treatment and secretory reporter gene activity was measured using the Quanti-Luc detection system (Invivogen) on a Spectramax i3X luminometer.

With `O=C(NCc1ccco1)c1ccc2c(c1)N(Cc1c(F)cccc1Cl)C(=O)CS2` [Compound G10, 4-(2-Chloro-6-fluorobenzyl)-N-(furan-2-ylmethyl)-3-oxo-3,4-dihydro-2H-benzo[b][1,4]thiazine-6-carboxamide] the “THP-1 EC50” value (HAQ STING (THP-1 cells)) was “Nil @ 30uM”, the EC50 ([1]; HEK293T cells expressing R232 hSTING, luciferase reporter, read-out: HEK.R232 EC50) was 2.49 µM and the EC50 ([1]; ISRE.ISG54 luciferase reporter, HEK293T, 18 hours, read-out: estimated EC50, R232 variant) was 2.5 µM. The “activity in STING knockout fibroblasts” value ([2]; STING knockout fibroblasts) was “inactive”, the “activation of the NFκB pathway in immortalized human fibroblasts” value [2] was “did not activate” and the “phosphorylation of mSTING or mIRF3, CT26 cells overexpressing mSTING” value [3] was “did not lead to phosphorylation”. For the same molecule, the EC50 [4] was 4.3 µM.
